Assay results: US20100021427A1, “Use of Antiviral Peptides For Treatment of Infections Caused by Drug-Resistant HIV” (Tianjin FusoGen Pharmaceuticals, Inc., priority 2008, published 2010)

Key:
POPC LUVs = experiment: Isothermal titration calorimetry (ITC), peptide-lipid binding; details: LUVs injected into peptide solution
Method: So, the POPC LUV liposome system was employing to investigate the binding activity of FS-01 to lipid membranes. Large unilamellar vesicles (LUVs) of 1-palmitoyl-2-oleoyl-sn-glycero-3-phosphocholine (POPC) liposome were prepared as previously described (Liu, S., et al. J.BIOL.CHEM. 2007; 282: 9612-9620). Briefly, 20 mg of POPC stock solution was dried under a stream of nitrogen and stored in vacuum overnight to completely remove trace amounts of organic solvent. The dried lipid film was suspended by vortexing in 2 mL PBS buffer. The resultant multilamellar vesicle suspension was freeze-thawed for 5 cycles and then successively extruded through two stacked polycarbonate filters (0.1 μm) 13 times using an Avanti miniextruder.
Solutions were degassed under vacuum prior to use. LUVs of POPC were injected into the chamber containing a peptide solution or buffer only (as a control). The heats generated in control experiments by injecting lipid vesicles into buffer without a peptide were subtracted from the heats produced in the corresponding peptide-lipid binding experiments. Data acquisition and analyses were performed using MicroCal's Origin software (Version 7.0).

NL4-3 (N42T/N43K) = assay type: cell-based, HIV-1; details: T20-resistant (R) virus, MT-2 cells, p24, fourth day; read-out: IC50 (Mean ± SD)
Method: (§1) Two T20-sensitive and five T20-resistant strains with well defined genetic mutations conferring the resistance were used in this experiment (Rimsky, L. T., et al. J.VIROL. 1998; 72: 986-993). Briefly, 1×10^4 MT-2 cells were infected with HIV-1 isolates at 100 TCID50 (50% tissue culture infective dose) in 200 μl RPMI 1640 medium containing 10% FBS in the presence or absence of FS-01 at graded concentrations overnight. Then the culture supernatants were removed and fresh media without FS-01 were added. On the fourth day post-infection, 100 μl of culture supernatants were collected from each well, mixed with equal volumes of 5% Triton X-100 and assayed for p24 antigen by ELISA.

NL4-3 (parental) = assay type: cell-based, HIV-1; details: T20-sensitive (S) virus, MT-2 cells, p24, fourth day; read-out: IC50 (Mean ± SD)
Method: as §1

NL4-3 (V38A/N42T) = assay type: cell-based, HIV-1; details: T20-resistant (R) virus, MT-2 cells, p24, fourth day; read-out: IC50 (Mean ± SD)
Method: as §1

NL4-3 (V38E/N42S) = assay type: cell-based, HIV-1; details: T20-resistant (R) virus, MT-2 cells, p24, fourth day; read-out: IC50 (Mean ± SD)
Method: as §1

NL4-3 (V38A/N42D) = assay type: cell-based, HIV-1; details: T20-resistant (R) virus, MT-2 cells, p24, fourth day; read-out: IC50 (Mean ± SD)
Method: as §1

NL4-3 (V38A) = assay type: cell-based, HIV-1; details: T20-resistant (R) virus, MT-2 cells, p24, fourth day; read-out: IC50 (Mean ± SD)
Method: as §1

NL4-3 (N42S) = assay type: cell-based, HIV-1; details: T20-sensitive (S) virus, MT-2 cells, p24, fourth day; read-out: IC50 (Mean ± SD)
Method: as §1

92TH009 (clade E, R5) = experiment: Primary HIV-1 isolate infection of PBMC, p24 ELISA; assay type: cell-based; details: p24 production, 7 days post infection
Method: (§2) The inhibitory activity of FS-01 against primary HIV-1 isolates was determined as previously described in (Jiang, S., et al. ANTIMICROB. AGENTS CHEMOTHER. 2004; 48: 4349-4359. The peripheral blood mononuclear cells (PBMC) were isolated from the blood of healthy donors using a standard density gradient (Histopaque-1077, Sigma) centrifugation. The cells were plated in 75-cm plastic flasks and incubated at 37° C. for 2 h. The nonadherent cells were collected and resuspended at 5×10^5/mL in RPMI 1640 medium containing 10% FBS, 5 μg of phytohemagglutinin (PHA)/mL, and 100 U of interleukin-2/mL, followed by incubation at 37° C. for 3 days. The PHA-stimulated cells were infected with the corresponding primary HIV-1 isolates at a multiplicity of infection (MOI) of 0.01 in the absence or presence of FS-01 at graded concentrations. Culture media were changed every 3 days. The supernatants were collected 7 days post infection and tested for p24 antigen by ELISA. The percent inhibition of p24 production and IC50/IC90 values were calculated.

93BR020 (clade F, X4R5) = experiment: Primary HIV-1 isolate infection of PBMC, p24 ELISA; assay type: cell-based; details: p24 production, 7 days post infection
Method: as §2

92US657 (clade B, R5) = experiment: Primary HIV-1 isolate infection of PBMC, p24 ELISA; assay type: cell-based; details: p24 production, 7 days post infection
Method: as §2

92UG001 (clade D, X4R5) = experiment: Primary HIV-1 isolate infection of PBMC, p24 ELISA; assay type: cell-based; details: p24 production, 7 days post infection
Method: as §2

93IN101 (clade C, R5) = experiment: Primary HIV-1 isolate infection of PBMC, p24 ELISA; assay type: cell-based; details: p24 production, 7 days post infection
Method: as §2

94UG103 (clade A, X4R5) = experiment: Primary HIV-1 isolate infection of PBMC, p24 ELISA; assay type: cell-based; details: p24 production, 7 days post infection
Method: as §2

[1] = test system: HIV-1IIIB-mediated cell-cell fusion (H9/HIV-1IIIB-infected cells with MT-2 cells); experiment: Dye transfer assay of HIV-1 mediated cell-cell fusion; assay type: cell-based; details: 37° C. for 2 h; read-out: IC50, inhibition of cell-cell fusion
Method: A dye transfer assay was used for detection of HIV-1 mediated cell-cell fusion as previously described in (Jiang, S., et al. Antimicrob.Agents Chemother. 2004; 48: 4349-4359. In brief, H9/HIV-1IIIB-infected cells were labeled with a fluorescent reagent, Calcein-AM (Molecular Probes, Inc., Eugene, OR) and then incubated with MT-2 cells (ratio =1:5) in 96-well plates at 37° C. for 2 h in the presence or absence of peptides. The fused and unfused calcein-labeled HIV-1-infected cells were counted under an inverted fluorescence microscope (Zeiss, Germany) with an eyepiece micrometer disc. The inhibition percent of cell-cell fusion and the IC50 values were calculated as described. […] The inhibitory activity of FS-01 on HIV-1-mediated infection was conducted too.

Substance: enfuvirtide
- binding constant to POPC LUVs (POPC LUVs): about 5×10^4 M^−1
- IC50 (NL4-3 (N42T/N43K)): > 2000 nM
- IC50 (NL4-3 (parental)): 22 ± 1.19 nM
- IC50 (NL4-3 (V38A/N42T)): > 2000 nM
- IC50 (NL4-3 (V38E/N42S)): > 2000 nM
- IC50 (NL4-3 (V38A/N42D)): > 2000 nM
- IC50 (NL4-3 (V38A)): > 2000 nM
- IC50 (NL4-3 (N42S)): 26.9 ± 13 nM
- IC50 (92TH009 (clade E, R5); read-out: IC50 (Mean ± SD)): 221 ± 58.3 nM
- IC90 (92TH009 (clade E, R5); read-out: IC90 (Mean ± SD)): 724 ± 56.6 nM
- IC50 (93BR020 (clade F, X4R5); read-out: IC50 (Mean ± SD)): 73.7 ± 8.57 nM
- IC90 (93BR020 (clade F, X4R5); read-out: IC90 (Mean ± SD)): 204 ± 28 nM
- IC50 (92US657 (clade B, R5); read-out: IC50 (Mean ± SD)): 41.5 ± 8.76 nM
- IC90 (92US657 (clade B, R5); read-out: IC90 (Mean ± SD)): 177 ± 15.9 nM
- IC50 (92UG001 (clade D, X4R5); read-out: IC50 (Mean ± SD)): 185 ± 23.3 nM
- IC90 (92UG001 (clade D, X4R5); read-out: IC90 (Mean ± SD)): 501 ± 70.8 nM
- IC50 (93IN101 (clade C, R5); read-out: IC50 (Mean ± SD)): 47.2 ± 4.73 nM
- IC90 (93IN101 (clade C, R5); read-out: IC90 (Mean ± SD)): 130 ± 16.8 nM
- IC50 (94UG103 (clade A, X4R5); read-out: IC50 (Mean ± SD)): 83.8 ± 12.1 nM
- IC90 (94UG103 (clade A, X4R5); read-out: IC90 (Mean ± SD)): 151 ± 8.8 nM
- IC50 [1]: 21.4 nM
